Test results as given in patent publication US12545906B2, “Methods and compositions for selection of functional aptamers” (Aummune Ltd., priority 2018, dated 2026).

Legend:
[1] = system: TNBC9 cells; assay: induction of caspase-3/7 activation / target killing in TNBC9 cells; assay type: cell-based, human
Source text: (§1) The 10 most abundant aptamer sequences are highlighted. Panel B is a representative screening of the 10 most abundant aptamers from Panel A for significant caspase-3/7 activation in comparison to vehicle (V) and random oligonucleotide (R) in TNBC9 cells. Aptamer IDs labeled 1-10 (E1, E2, . . . . E10). […] STA, staurosporine; PAC, paclitaxel; Random, random oligonucleotide.
Functional enrichment of aptamers that mediate apoptosis of patient-derived xenograft (PDX)-derived triple negative breast cancer (TNBC) cells, termed TNBC9 (Example 8) was followed by selection of lead molecules. Based on sequencing analysis (FIG. 10, Panel A), the 10 most abundant sequences in the functionally enriched aptamer population were selected, synthesized, and folded.
The effectiveness of the selected candidate aptamers in target killing was measured on TNBC9 cells. Specifically, candidate aptamers were synthesized, folded, directly tested for induction of caspase-3/7 activation in TNBC9 cells.

[2] = system: MCF10A cells; assay: selectivity of cell death induction, negative target cells; assay type: cell-based, human; conditions: selectivity at the target cell level
[3] = system: MDA-MB-231 cells; assay: effect of E8 on MDA-MB-231 cells; assay type: cell-based
[4] = system: TNBC cells; assay: effect of E8 on TNBC cells in mouse serum; assay type: cell-based
Source text: as §1
(See, e.g., Yamashita, M. et al. A novel method for evaluating antibody-dependent cell-mediated cytotoxicity by flow cytometry using cryopreserved human peripheral blood mononuclear cells. Sci. Rep. 6, 19772 (2016); Romano, E. et al. Ipilimumab-dependent cell-mediated cytotoxicity of regulatory T cells ex vivo by nonclassical monocytes in melanoma patients. Proc. Natl. Acad. Sci. U.S.A 112, 6140-6145 (2015); Kumar, R. et al. PD-1 blockade restores impaired function of ex vivo expanded CD8 T cells and enhances apoptosis in mismatch repair deficient EpCAMPD-L1 cancer cells. Onco. Targets. Ther. 10, 3453-3465 (2017), each of which is hereby incorporated by reference.).

[5] = system: red blood cells; assay: incubation with red blood cells: agglutination and hemolysis; assay type: cell-based, human; conditions: varying concentrations of E8
Method: (§2) Varying concentrations of E8 aptamer candidate were incubated with red blood cells and, separately, with PBMCs from healthy donors to ensure E8 administration is applicable in a clinical setting. No effects of blood agglutination or red blood cell hemolysis were measured.

[6] = system: PBMCs from healthy donors; assay: cytokine antibody array assay on PBMCs; assay type: cell-based, human; conditions: varying concentrations of E8
Method: as §2

[7] = system: MDA-MB-231-derived tumors; assay: efficacy of E8 on tumor volume in tumor-bearing mice; assay type: in vivo, NOD/SCID mice
Source text: White arrows point to tumor locations. […] Inset region is shown magnified on the right, white arrowhead points to tumor site. […] Asterisks denote a statistically difference with p<0.05 (n=8 mice/group). […] Panel F-G show histochemical analysis of caspase-3 activity in tumor-derived tissue sections (Panel F, vehicle-treated; Panel G, E8-treated). Panel H-I show TUNEL analysis of tumor-derived tissue sections (H, vehicle-treated; I, E8-treated).
To evaluate the efficacy of E8 on tumor volume, the PEGylated aptamer was injected once every 2 days during the course of an 11-day period, at a dose of 100 mg/kg (equivalent in molar terms to standard chemotherapy).

[8] = system: tumor cells in EVOC samples from TNBC patients; assay: human ex-vivo organ cultures (EVOC), graded pathological assessment; assay type: cell-based; conditions: 0-4 scale, 2 blinded pathologists; 20-50 μM, two doses, 5 days; EVOC from 2 patients
Method: Graded pathological assessment was made on a scale of 0-4 by two blinded pathologists. White stars denote samples in which an effect reached a grade of at least 3. Rnd, random.
The efficacy of aptamer E8 (described in Example 10) was evaluated in human ex-vivo organ cultures (EVOC). EVOCs were freshly derived from two representative TNBC patients and were prepared by Curesponse. 250 μm wide tissue slices were plated onto a 24 well plate in culture medium at high oxygen conditions. Cancer cells of the primary tumor were kept viable for up to 14 days.
The E8 aptamer and other chemotherapies (palbociclib, everolimus, fulvestrant) were administered at concentrations of 20-50 μM to the EVOCs. Following day 1, sample medium was replaced and a second dose of the same concentration of therapies were administered. After 5 days, samples were fixed with 4% w/v paraformaldehyde and histological sections were prepared and stained with hematoxylin-eosin. Effects were graded by 2 blinded pathologists on a 0-4 scale.

[9] = PEGylated aptamer, 100 mg/kg once every 2 days
[10] = following injection of E8 compared to the PBS control

With “CGGACTCACGCAAGAGCGTTTGGCAGTGTAAAACTGTTTAACGTATCTGCTCGC (chemistry not given here) [Aptamer E8]” the “induction of apoptosis (caspase-3/7 activation)” value ([1]; compared to vehicle alone or random oligonucleotides) was “most effective of the selected aptamers at inducing apoptosis”, the “level of direct target killing” value ([1]; in-vitro and ex-vivo, independent biological replicate experiments) was 20-40% and the “cell killing, target cells” value ([1]; selectivity at the target cell level) was “killing TNBC9”. For the same sequence, the “cell killing, negative target cells” value [2] was “but not MCF10A cells”, the “effect on MDA-MB-231 cells” value [3] was “remarkable effect” and the “function in mouse serum” value [4] was “retained function in mouse serum”. For the same sequence, the blood agglutination [5] was “No effects”, the “red blood cell hemolysis” value [5] was “No effects” and the cytokine release [6] was “Only minor release of certain cytokines”. The “TUNEL analysis (apoptotic DNA fragmentation) of tumor-derived tissue sections” value [7, 9] was “increase in cell death”, the “histochemical analysis of caspase-3 activity in tumor-derived tissue sections” value [7, 9] was “significant staining” and the “tumor volume change compared to vehicle-treated animals” value ([7]; PEGylated aptamer, 100 mg/kg once every 2 days over 11 days) was “decreased significantly”. For the same sequence, the “final tumor volume on day 11” value ([7]; PEGylated aptamer, 100 mg/kg once every 2 days over 11 days, vehicle 301±51) was 168±39 mm^3, the “macroscopic appearance of extracted tumors” value ([7]; PEGylated aptamer, 100 mg/kg once every 2 days, tumors excised day 11) was “macroscopic signs of tissue death” and the body weight [7, 10] was “No significant changes”. For the same sequence, the physical appearance [7, 10] was “No significant changes” and the “pathological grade of effect on tumor cells” value [8] was 3-4.
